From patent US20090036544A1, “METHODS AND COMPOSITIONS FOR INHIBITING THE PROLIFERATION OF PROSTATE CANCER CELLS” (priority 2001, published 2009)

What was measured:
[1] = tested on: LNCaP cells; experiment: Cell proliferation assay (MTS) in LNCaP cells; assay type: cell-based, human; conditions: five days
Description: (§1) A human prostate cancer cell line, LNCaP (American Type Culture Collection (ATCC), Manassas, Va.), was grown in RPMI 1640 medium (Mediatech, Herndon, Va.) supplemented with 5% fetal bovine serum (FBS) and 5% CO2 at 37° C. until reaching approximately 50-70% confluence. The media were changed to serum-free RPMI 1640 at 24 hrs prior to performing experiments to deplete undesired steroids. Cells were then treated with 5% charcoal-stripped FBS RPMI 1640 containing POH (all from Sigma (St. Louis, Mo.), dissolved in DMSO) at indicated concentrations with or without 1 nM of mibolerone (Mib) (from New England Nuclear (St. Louis, Mo.), dissolved in ethanol), a non-metabolizable synthetic androgen. Equivalent amounts of solvent were added to control cells.
(§2) LNCaP cells were seeded at 4×10^4/well in 24-well dishes and treated with POH at indicated concentrations in the presence of 1 nM Mib. Five days later, cell proliferation was measured using an MTS assay kit (Promega, Madison, Wis.), and PSA and hK2 levels in spent media were determined by the Tandem-E PSA kit (Hybritech Inc., San Diego, Calif.) or Mayo's hK2 assay (Zhang et al., 1999, Endocrin., 140:1665-71). Protein levels of PSA and hK2 were normalized to the MTS measurements.

[2] = tested on: androgen receptor; experiment: Transient transfection luciferase reporter assay, PSA promoter, in LNCaP cells; assay type: cell-based, human; conditions: 1 nM Mib, 24 hrs, FIG. 3A
From the text: (§3) The 6 Kb PSA promoter and the androgen receptor promoter constructs (pGL3 SV40, pGL3 SV40-3 ARE, pGL3 or PSA promoter/pGL3) were described previously (Id). To make an hk2 androgen responsive element (hk2 ARE) construct, a DNA fragment containing three copies of hk2 ARE (5′-[…]-3′ (SEQ ID NO:1)) was synthesized by the Mayo Molecular Core Facility. The synthesized fragment, including SacI and XhoI restriction enzyme sites at the 5′ and 3′-end, respectively, was digested with SacI and XhoI according to manufacturer's instructions and inserted into a pre-cut pGL3-Promoter vector (Promega). The fidelity of this construct was confirmed by DNA sequencing.
(§4) LNCaP cells in duplicate plates were co-transfected with a CMV-β galactosidase (β-gal) expression vector (0.3 μg/plate) and one of the following: a pGL3-Basic luciferase vector (Promega) containing the PSA promoter (nucleotides 1-5836 of GenBank Accession No. U37672), a pGL3-Promoter luciferase vector (Promega) containing three copies of hk2 ARE, a PGL3 vector or PSA promoter/PGL3 vector. Transfections were performed using a liposome method with dimethyldioctadecyl-ammonium bromide (Sigma) and L-lecithin (Sigma) (4:10). Cells were then treated with POH in the presence or absence of 1 nM Mib for 24 hrs. Cell extracts were prepared and used for luciferase and β-gal assays (Promega). […]

[3] = tested on: androgen receptor; experiment: Transient transfection luciferase reporter assay, 3 copies of hK2 ARE, in LNCaP cells; assay type: cell-based, human; conditions: minimum SV40 promoter and 3 copies of hK2 ARE, 1 nM Mib, 24 hrs, FIG. 3B
From the text: as §3, §4

[4] = tested on: androgen receptor; experiment: Western blot analysis of androgen receptor protein in LNCaP cells; assay type: cell-based, human; conditions: POH until a concentration of 1 μM is reached, 1 nM Mib, 24 hrs
Description: LNCaP cells were treated with the indicated concentrations of POH in the presence of 1 nM Mib for 24 hrs. Cells were then harvested, and whole-cell lysates and nuclear extracts were prepared as described (Mitchell et al., 1999, Cancer Res., 59:5892-5). Western blot analysis was performed according to the protocol described (Id). A mouse antibody against the human androgen receptor (1:1000 or 1:2000 dilution) (Pharmingen, San Diego, Calif.) or human tubulin (1:10,000 dilution) (Santa Cruz, Santa Cruz, Calif.) was used as the primary antibody. Ponceau S staining was used for monitoring protein loading and transfer efficiency (Id).

[5] = tested on: PSA; experiment: PSA quantification in spent media of LNCaP cells (Tandem-E PSA kit); assay type: cell-based, human; conditions: 1 nM Mib, five days, normalized to MTS; FIG. 2A
Description: as §1, §2

[6] = tested on: c-jun; experiment: Expression of c-jun protein after POH treatment; assay type: cell-based; conditions: normalized data, FIG. 6
Description: In order to ascertain how androgen receptor function was being inhibited by POH at levels below 1 μM, c-jun was examined. […] The graph depicts the normalized data. This experiment was repeated twice and representative data is shown.

[7] = tested on: androgen receptor promoter; experiment: Luciferase reporter assay with androgen receptor promoter in LNCaP cells; assay type: cell-based, human
From the text: as §3, §4

[8] = tested on: hK2; experiment: hK2 quantification in spent media of LNCaP cells (Mayo's hK2 assay); assay type: cell-based, human; conditions: 1 nM Mib, five days, normalized to MTS; FIG. 2B
Description: as §1, §2

Compound: C[C@@H]1CC2=CC(=O)CC[C@@H]2[C@H]2CC[C@@]3(C)[C@@H](CC[C@]3(C)O)[C@@H]21 [Mib, mibolerone]
- LNCaP cell proliferation ([1]; presence of Mib (1 nM), FIG. 1): significantly increased

Compound: C=C(C)[C@@H]1CC=C(CO)CC1 [POH, Perillyl alcohol]
- androgenic inducibility of the PSA promoter (luciferase reporter) [2]: significantly reduced
- ARE-regulated luciferase activity [3]: inhibited
- androgen-enhanced androgen receptor protein levels [4]: not affected
- accumulation of PSA protein in LNCaP cells stimulated by androgens [5]: inhibited
- level of c-jun [6]: up to 3.5 times the control levels
- androgen receptor promoter activity ([7]; POH at 1 μM): drastically reduced
- androgen receptor promoter activity ([7]; POH below 1 μM): not affected
- proliferation of LNCaP cells ([1]; POH in the presence of 1 nM Mib, p<0.05, FIG. 1): significantly inhibited
- accumulation of hK2 protein in LNCaP cells stimulated by androgens [8]: inhibited
